Source: paper PMC2546511 (Journal of Molecular Biology, 2007)

Target: FliI ATPase (FliI^WT) (Salmonella enterica, UniProt P26465)
Details: in the presence of phospholipids; triplicate assays

Sequence of FliI ATPase (FliI^WT) (P26465 whole entry): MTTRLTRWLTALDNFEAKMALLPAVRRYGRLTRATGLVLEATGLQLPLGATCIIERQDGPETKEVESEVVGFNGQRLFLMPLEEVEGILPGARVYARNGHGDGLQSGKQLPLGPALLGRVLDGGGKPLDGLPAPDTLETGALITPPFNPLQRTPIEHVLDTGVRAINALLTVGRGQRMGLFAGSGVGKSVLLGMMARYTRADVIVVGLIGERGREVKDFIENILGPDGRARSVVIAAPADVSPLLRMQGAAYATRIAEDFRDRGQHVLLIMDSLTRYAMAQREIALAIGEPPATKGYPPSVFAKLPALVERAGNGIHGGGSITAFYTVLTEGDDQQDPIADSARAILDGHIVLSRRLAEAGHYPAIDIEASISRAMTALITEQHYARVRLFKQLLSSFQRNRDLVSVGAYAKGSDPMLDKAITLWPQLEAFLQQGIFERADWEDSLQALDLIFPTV

Nc1ncnc2c1ncn2[C@@H]1O[C@H](COP(=O)(O)OP(=O)(O)OP(=O)(O)O)[C@@H](O)[C@H]1O [ATP]
Km: 1 ± 15% mM
